US11504342B2, “Transmucosal film composition and methods of making and using the same” (Avior, Inc., priority 2018, dated 2022)

Assay: Solubility evaluation in combinations of solvent systems
Assay type: physicochemical
Description: In addition, the solubility of nalmefene in varying concentrations was evaluated using different combinations of solvent systems. The solvent systems included combinations of polar solvents with different surface active agents. Exemplary surface active agents included: Tween 20, Tween 80, […]® 34/44, KOLLIPHOR® HS 15, SOLUTOL® NF, LABRAFIL® M2125 CS and LABRAFIL® M1944 CS.

Measured: Observation (solubility)

C=C1CC[C@@]2(O)[C@H]3Cc4ccc(O)c5c4[C@@]2(CCN3CC2CC2)[C@H]1O5 [nalmefene]
Completely Soluble,: ID 1, Ethanol:Water 75:25, nalmefene 200 mg/mL | ID 2 (second), Ethanol:Water:Propylene Glycol 82.5:12.5:5, nalmefene 200 mg/mL | ID 2, Ethanol:Water:Tween 20 75:24.5:0.5, nalmefene 250 mg/mL | ID 3, Ethanol:Water:Propylene Glycol 68:22:10, nalmefene 350 mg/mL | ID 5, Ethanol:Water:Propylene Glycol:Tween 80 70:25:4:1, nalmefene 350 mg/mL | ID 6, Ethanol:Water:Glycerine 70:20:10, nalmefene 300 mg/mL | ID 7, Ethanol:Water:Gelucire 34/14 75:20:5, nalmefene 200 mg/mL | ID 8, Ethanol:Water:Labrafil M2125 CS 80:17.5:2.5, nalmefene 200 mg/mL | ID 9, Ethanol:Water:Labrafil M1944 CS 80:17.5:2.5, nalmefene 200 mg/mL
